Results: patent US20240148679A1, “METHODS AND COMPOSITIONS RELATED TO TREATMENT AND PREVENTION OF CANCER BY INHIBITION OF DGAT1 AND DGAT2” (Ohio State Innovation Foundation, priority 2019, published 2024)
“Also recorded” adds a separate entry of the source.

How the values were obtained:
GBM cells = assay: GBM cell death, trypan blue counting; assay type: cell-based, human; conditions: single inhibitor, 3 days
U251 cells = assay: Mitochondrial membrane potential (Rhodamine 123); assay type: cell-based, human; conditions: 20 μg/ml, 24 hr
Procedure: (A, B) Transmission electron microscopy analysis of the mitochondrial structure in U251cells treated with the DGAT1 inhibitor A-922500 (20 μg/ml) or DGAT2 inhibitor PF-06424439 (20 μg/ml) for 24 hr (A) or infected with shRNA-expressing lentivirus against DGAT1 for 48 hr (B). Scale bar, 500 nm. Mitochondria are indicated by arrows. (C) Representative fluorescence images of mitochondria in U251 cells treated with the DGAT1 inhibitor or DGAT2 inhibitor. Mitochondria were stained with MitoTracker Red. LDs were stained with BODIPY 493/503. Nuclei were stained with Hoechst 33342. Scale bar, 10 μm. (D) Representative fluorescence images of mitochondria in GBM cells infected with shRNA-expressing lentivirus against DGAT1 or DGAT2 for 48 hr. Mitochondria were stained with MitoTracker Red. LDs were stained with BODIPY 493/503. Nuclei were stained with Hoechst 33342. Scale bar, 10 μm. (E, F) Representative fluorescence image analysis of mitochondrial membrane potential stained with Rhodamine123 in U251 cells treated with the DGAT1 inhibitor A-922500 (20 μg/ml) for 24 hr or infected with shRNA-expressing lentivirus against DGAT1 for 48 hr. Nuclei were stained with Hoechst 33342. Scale bar, 10 μm. Rhodamine123 staining was quantified by ImageJ software in more than 100 cells. Statistical significance was determined by s t-test for inhibitor treatment or one-way ANOVA for shRNA knockdown. *P<0.0001. […]

[1] = Toxicity in treated mice (H&E of organs, body weight); assay type: in vivo; conditions: 120 mg/kg/day; for toxic effects in mouse liver, kidney and spleen (H&E staining): 13 days
Procedure: (A) The H&E staining of the liver, kidney and spleen of mice treated with the DGAT1 inhibitor A922500 (120 mg/kg/day, oral gavage) for 13 days. Scale bar, 50 μm. (B) The body weight of mice treated with vehicle or DGAT1 inhibitor A-922500 (120 mg/kg/day, oral gavage) for 13 days. The mice with DGAT1i treatment lost 8% weight at day 13 treatment compared with the mice weight at day 1.
Paraffin tissue sections were deparaffinized in xylene and rehydrated in degraded ethanol (100%, 95% and 70% ethanol), respectively. After washing with dH2O, slides were stained with hematoxylin and eosin solution in sequence followed by washing with dH2O. Then slides were dehydrated in degraded ethanol and immersed in xylene followed by mounting in Permount.
Intracranial xenograft models were generated using female athymic nude (NCr-nu/nu) mice (6-8 weeks of age obtained from OSU Target Validation Shared Resource). U87EGFRvIII (1×10^6) cells infected with shDGAT1-, shDGAT2- or scramble shRNA-expressing lentivirus for 48 hr (suspended in 100 μl PBS) were implanted into mice flank to generate subcutaneous model. For intracranial xenograft model, U87EGFRvIII-luc (1×10^5) or GBM30-luc (1×10^5) cells infected with shDGAT1-, shDGAT2- or scramble shRNA-expressing lentivirus for 48 hours (suspended in 5 μl PBS) were implanted into mouse brains. Mice were observed until they became moribund, at which point they were sacrificed. For drug treatment, U87EGFRvIII (1×10^6 cells suspended in 100 μl PBS) or GBM30 cells (4×10^6 suspended in 100 μl PBS and then mixed with 100 μl matrigel) were implanted in mouse flanks. DGAT1 inhibitor A-922500 (120 mg/kg/day, oral gavage) was formulated by 1% Tween 80 in PBS and administrated to mice when tumor size reached approximately 80 mm^3.

For O=C(Nc1ccccc1)Nc1ccc(-c2ccc(C(=O)[C@@H]3CCC[C@H]3C(=O)O)cc2)cc1 [A-922500], the GBM cell death (GBM cells) was “greatly induced marked GBM cell death”, the mitochondria membrane potential (U251 cells) was “significantly reduced” and the mice weight decrease ([1]; after 13 days, in comparison with vehicle control group) was “about 8%”. For the same molecule, the “toxicity in treated mice (overall)” value ([1]; oral gavage) was “does not induce noticeable toxic effects; also recorded: no obvious toxicity was observed”, the “toxic effects in mouse liver, kidney and spleen (H&E staining)” value ([1]; oral gavage) was “did not observe any toxic effects” and the “toxic effects in mouse liver, kidney and spleen (H&E staining)” value ([1]; oral gavage, listed as A922500) was “no obvious toxic effects”. The body weight loss ([1]; oral gavage, day 13 compared with day 1) was 8%.
